Results on 40 molecules are retold here after paper PMC5118709, “Identification of Polo-like kinase 1 interaction inhibitors using a novel cell-based assay” (Scientific Reports, 2016).

Where two headings read alike, the source gives them in different places.

One assay has as its system HeLa cells. The assay is described as follows: mitotic defect phenotypes by immunofluorescence. The class given is cell-based. The following applies: 10 nM, 7 h. How it is done:
HeLa cells were treated with these compounds along with the known PBD inhibitors PPG, TQ, Poloxin and the KD inhibitor BI2536 as controls, and then stained against α-Tubulin, pericentrin (a centrosome marker) and DNA (Fig. 2D). In all cases, there was a marked increase in the frequency of disorganized spindles compared with DMSO-treated control cells. This is expected as Plk1 plays multiple roles in spindle assembly and maintenance. […] Cpd 69, an analog of compound 122, induced a similar phenotype at lower concentrations (data not shown). This phenotype was not seen after treatment with BI2536.
For the mitotic defect phenotypes, 25 200 HeLa cells were plated on poly-L-lysine coated round cover slips in 24-well plates. The day after, cells were treated for 7 hours, and then washed with PHEM buffer at 37 °C before fixation in PHEM buffer containing 4% formaldehyde for 20 minutes at 37 °C. Cells were washed three times with TBS-tween 0.1% and plate was kept overnight at 4 °C. Next steps were followed as previously described except that coverslips were incubated in a dark wet chamber with antibodies. Anti-pericentrin (diluted 1:1000; Abcam), anti-α-tubulin DM1A (diluted 1:500; Sigma-Aldrich), Alexa Fluor 488 anti-rabbit and Texas-Red anti-mouse (diluted 1:200; Invitrogen) were used. Coverslips were mounted on slide using Vectashield media containing DAPI (Vector Laboratories).
Images shown in Fig. 2D were acquired on an AxioImager microscope (Carl Zeiss) with a 100x oil objective (NA 1.4 DICIII) and an AxioCam HRM camera (Carl Zeiss) using AxioVision software (Carl Zeiss).

The next assay has as its target GST-PBD367-603 of Plk1 (Homo sapiens, UniProt P53350). The assay is described as follows: fluorescence polarization assay PBD-phosphopeptide. The following applies: for activity in the FP assay: SAR.

Chain of GST-PBD367-603 of Plk1 (P53350 367-603): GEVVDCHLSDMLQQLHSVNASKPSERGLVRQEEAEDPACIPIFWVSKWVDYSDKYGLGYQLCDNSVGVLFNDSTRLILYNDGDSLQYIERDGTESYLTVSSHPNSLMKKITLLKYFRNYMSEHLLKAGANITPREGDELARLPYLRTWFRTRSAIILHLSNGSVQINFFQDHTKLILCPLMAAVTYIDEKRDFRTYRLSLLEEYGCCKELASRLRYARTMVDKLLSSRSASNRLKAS

As to `CC[C@@H]1C(=O)N(C)c2cnc(Nc3ccc(C(=O)NC4CCN(C)CC4)cc3OC)nc2N1C1CCCC1` [BI2536], in the assay with HeLa cells, the “2 > pericentrin foci (percentage of cells)” value stood at 3 ± 2% and the “Disorganized spindles (percentage of cells)” value came out at 55 ± 8%.
A word on the IC50: it is the midpoint of a concentration-inhibition curve. On to `Cc1ccc(C(=O)OCCS(=O)(=O)c2ccc(C(F)(F)F)cn2)cc1` [Cpd 123], for which, at GST-PBD367-603 of Plk1 (read-out: FP - IC50, Table S3), the half-maximal inhibitory concentration (IC50) was 7.2 µM.
Consider `O=C(OCCS(=O)(=O)c1ccccn1)c1ccccc1` [Cpd 124], for which the IC50 against GST-PBD367-603 of Plk1 (FP - IC50 (μM), Table S3) stood at 68.6 ± 18.5 µM; on GST-PBD367-603 of Plk1 (IC50 in FP, GST-PBD367-603 38 nM, 1 h pre-incubation, FITC-phosphopeptide 10 nM, Fig. 4C), 56 µM.
For `O=C(OCCS(=O)(=O)c1ccc(C(F)(F)F)cn1)c1cccc(Cl)c1` [Cpd 125], the IC50 on GST-PBD367-603 of Plk1 (read-out: FP - IC50, Table S3) came to 11.9 ± 7.2 µM.
Still for that read-out and setting: next, `O=C(OCCS(=O)(=O)c1ncccc1Cl)c1cccc(Cl)c1` [Cpd 126]: 4.3 µM; `O=C(OCCS(=O)(=O)c1ccccn1)c1cccc(Cl)c1` [Cpd 127]: 187 µM.
For the molecule `O=C(OCCS(=O)(=O)c1ncccc1C(F)(F)F)c1cccc(Cl)c1` [Cpd 128], on GST-PBD367-603 of Plk1 (read-out: FP - IC50, Table S3), the concentration for half-maximal inhibition (IC50) amounted to 8.4 µM.
The same measure, in the same setting: the figure for `O=C(OCCS(=O)(=O)c1ccc(C(F)(F)F)cn1)c1ccccc1` [Cpd 129] is 8.5 µM; for `O=C(OCCS(=O)(=O)c1ccc(C(F)(F)F)cn1)c1ccc(Cl)c(Cl)c1` [Cpd 130] it is 7.8 µM.
Still for that read-out and setting: next, `O=C(OCCS(=O)(=O)c1ccc(Cl)cn1)c1cccc(Cl)c1` [Cpd 131]: 70.5 µM; `CC(C)(C)c1ccc(C(=O)OCCS(=O)(=O)c2ccc(C(F)(F)F)cn2)cc1` [Cpd 132]: 26.1 µM.
Same read-out and setting: the figure for `O=C(OCCS(=O)(=O)c1ccc([N+](=O)[O-])cn1)c1cccc(Cl)c1` [Cpd 133] is 5.4 µM.
For the molecule `O=S(=O)(CC(O)COc1ccccc1)c1ccccn1` (centres unmarked) [Cpd 136], on GST-PBD367-603 of Plk1 (Table S3), the “FP - IC50 (μM)” value is listed as “No inhibition”.
The same measure, in the same setting: next, `Cc1ccc(S(=O)(=O)CCC(=O)Nc2cccc(Cl)c2)cc1` [Cpd 137]: “No inhibition”.
On the same count and under the same terms, the entry for `Cc1ccc(S(=O)(=O)CCC(=O)OCc2ccc(Cl)c(Cl)c2)cc1` [Cpd 138] is “No inhibition”.
Still for that read-out and setting: the entry for `O=[N+]([O-])c1cccc(S(=O)(=O)NCCOc2cccc(Cl)c2Cl)c1` [Cpd 139] is “No inhibition”.
`Cc1c(Cl)cccc1NC(=O)CCS(=O)(=O)c1ccccc1` [Cpd 140]: the “FP - IC50 (μM)” value on GST-PBD367-603 of Plk1 (Table S3) is reported as “No inhibition”.
Still for that read-out and setting: next, `CC(CC(=O)Nc1ccc(Cl)cc1)S(=O)(=O)c1ccc(Cl)cc1` (centres unmarked) [Cpd 141]: “No inhibition”.
With `O=C(NCCS(=O)(=O)c1ccc(C(F)(F)F)cn1)c1ccc(Cl)cc1` [Cpd 142], the “activity in the FP assay” value on GST-PBD367-603 of Plk1 is listed as “activity was abolished”. Moreover, the “FP - IC50 (μM)” value at GST-PBD367-603 of Plk1 (Table S3) is “No inhibition”.
For the molecule `O=C(CS(=O)(=O)c1cc(C(F)(F)F)cc(C(F)(F)F)c1)Nc1ccccc1F` [Cpd 143], the “FP - IC50 (μM)” value at GST-PBD367-603 of Plk1 (Table S3) was “No inhibition”.
Same read-out and setting: the entry for `O=C(CS(=O)(=O)c1ccc(C(F)(F)F)cn1)NNC(=O)c1ccccc1` [Cpd 144] is “No inhibition”.
For the molecule `Cc1ccc(NC(=O)CCS(=O)(=O)c2ccccc2)c(Br)c1` [Cpd 145], the “FP - IC50 (μM)” value at GST-PBD367-603 of Plk1 (Table S3) is given as “No inhibition”.
The same measure, in the same setting: next, `Cc1cc(C(F)(F)F)cc(SCCO)n1` [Cpd 146, 2-((6-methyl-4-(trifluoromethyl)pyridin-2-yl)thio) ethanol]: “No inhibition”.
Consider `Cc1cc(C(F)(F)F)cc(SCCOC(=O)c2cccc(Cl)c2)n1` [Cpd 147, 2-((6-methyl-4-(trifluoromethyl)pyridin-2-yl)thio)ethyl 3-chlorobenzoate], for which the “activity in the FP assay” value on GST-PBD367-603 of Plk1 was “activity was abolished”. Also, on GST-PBD367-603 of Plk1 (Table S3), the “FP - IC50 (μM)” value is on record as “No inhibition”.
On to `Cc1cc(C(F)(F)F)cc([S+]([O-])CCOC(=O)c2cccc(Cl)c2)n1` (centres unmarked) [Cpd 148, 2-((6-methyl-4-(trifluoromethyl)pyridin-2-yl)sulfinyl)ethyl 3-chlorobenzoate], for which the “activity in the FP assay” value at GST-PBD367-603 of Plk1 was “activity was abolished”. On GST-PBD367-603 of Plk1 (Table S3), the “FP - IC50 (μM)” value was “No inhibition”.
As to `Cc1cc(C(F)(F)F)cc(SCCOC(=O)c2cccc(OC(F)(F)F)c2)n1` [Cpd 149], the “FP - IC50 (μM)” value on GST-PBD367-603 of Plk1 (Table S3) is “No inhibition”.
Still for that read-out and setting: the entry for `Cc1cccc(C(=O)OCCSc2cc(C(F)(F)F)cc(C)n2)c1` [Cpd 150] is “No inhibition”.
`Cc1cc(C(F)(F)F)cc(S(=O)(=O)CCOC(=O)c2cccc(OC(F)(F)F)c2)n1` [Cpd 151]: the IC50 at GST-PBD367-603 of Plk1 (read-out: FP - IC50, Table S3) was 41.7 µM.
The same measure, in the same setting: the figure for `Cc1cccc(C(=O)OCCS(=O)(=O)c2cc(C(F)(F)F)cc(C)n2)c1` [Cpd 152] is 54.4 µM.
As to `Cc1cc(C(F)(F)F)cc(SCCOC(=O)c2cccc(Br)c2)n1` [Cpd 153], the “FP - IC50 (μM)” value at GST-PBD367-603 of Plk1 (Table S3) is listed as “No inhibition”.
As for `Cc1cc(C(F)(F)F)cc(S(=O)(=O)CCOC(=O)c2cccc(Br)c2)n1` [Cpd 154], the 50% inhibitory concentration (IC50) on GST-PBD367-603 of Plk1 (read-out: FP - IC50, Table S3) stood at 36.8 µM.
In the case of `Cc1cc(C(F)(F)F)cc(SCCOC(=O)c2cc(Cl)cc(Cl)c2)n1` [Cpd 155], at GST-PBD367-603 of Plk1 (Table S3), the “FP - IC50 (μM)” value is “No inhibition”.
`Cc1cc(C(F)(F)F)cc(S(=O)(=O)CCOC(=O)c2cc(Cl)cc(Cl)c2)n1` [Cpd 156]: the IC50 at GST-PBD367-603 of Plk1 (read-out: FP - IC50, Table S3) amounted to 48.1 µM.
Take `Cc1cc(C(F)(F)F)cc(SCCOCc2cccc(Cl)c2)n1` [Cpd 157]: the “FP - IC50 (μM)” value on GST-PBD367-603 of Plk1 (Table S3) is “No inhibition”.
Take `Cc1cc(C(F)(F)F)cc(S(=O)(=O)CCO)n1` [Cpd 158, 2-((6-methyl-4-(trifluoromethyl)pyridin-2-yl)sulfonyl)ethanol]: the “activity in the FP assay” value at GST-PBD367-603 of Plk1 is “completely abrogated activity”. Moreover, the “FP - IC50 (μM)” value on GST-PBD367-603 of Plk1 (Table S3) is recorded as “No inhibition”.
For `Cc1cc(C(F)(F)F)cc(S(=O)(=O)CCOCc2cccc(Cl)c2)n1` [Cpd 159], the “FP - IC50 (μM)” value on GST-PBD367-603 of Plk1 (Table S3) is “No inhibition”.
For the molecule `Cc1cc(C(F)(F)F)cc(S(=O)(=O)CCOC(=O)C2CCCCC2)n1` [Cpd 160], on GST-PBD367-603 of Plk1 (read-out: FP - IC50, Table S3), the IC50 was determined as 75 µM.
On the same count and under the same terms, the figure for `Cc1cc(C(F)(F)F)cc(S(=O)(=O)CCOS(C)(=O)=O)n1` [Cpd 164, 2-((6-methyl-4-(trifluoromethyl)pyridin-2-yl)sulfonyl) ethyl methanesulfonate] is 6 µM.
`Cc1cc(C(F)(F)F)cc(SCCOC(=O)C2CCCCC2)n1` [Cpd 168]: the “FP - IC50 (μM)” value on GST-PBD367-603 of Plk1 (Table S3) was “No inhibition”.
With `CCS(=O)(=O)c1cc(C(F)(F)F)cc(C)n1` [Cpd 169, 2-(ethylsulfonyl)-6-methyl-4-(trifluoromethyl)pyridine], at GST-PBD367-603 of Plk1, the “activity in the FP assay” value is “completely abrogated activity”. Also, the “FP - IC50 (μM)” value at GST-PBD367-603 of Plk1 (Table S3) was “No inhibition”.
